Laboratory results as given in patent US20160058743A1, “METHODS FOR TREATING SENSORIMOTOR IMPAIRMENTS ASSOCIATED WITH CERTAIN TYPES OF STROKE USING AMINOPYRIDINES” (ACORDA THERAPEUTICS, INC., priority 2013, published 2016).
“And” between values parts separate entries of the source, which are not always exact repeats. Equal values may be shown once.

Key:
[1] = test system: rats with middle cerebral artery occlusion (MCAO); experiment: Cylinder test (overall asymmetry, total movement) after MCAO; assay type: in vivo, Sprague Dawley rats; parameters: Cylinder Test (Total Movement) / Cylinder Test (Total Movement), Mean: unit not given here; settings: for Cylinder Test (Total Movement) / Cylinder Test Score (Overall Asymmetry (%)): individual animals and group Mean; for Cylinder Test (Total Movement), Mean: N 15
Source text: In particular, the MCAO model in Sprague Dawley rats that was utilized in the experiments presented below mimics the conditions in human ischemic stroke. In this model, focal cerebral infarcts were made by permanent occlusion of the proximal right middle cerebral artery (MCA) using a modification of the method of Tamura et al. (No To […] 1986; 38:747-51). Briefly, the temporalis muscle was bisected and reflected through an incision made midway between the eye and the ear canal. The proximal MCA was exposed through a subtemporal craniectomy without removing the zygomatic arch and without transecting the facial nerve. […] In this experiment, Sprague Dawley rats were anesthetized, subjected to a surgery resulting in middle cerebral artery occlusion (MCAO), treated with and without 4-aminopyridine and behavioral assessments were performed as described below. Treatment was initiated at 4 weeks after stroke. Dosing and Treatment: Rats were treated in accordance with the dosing schedule shown in Tables 2A, 2B, 3 and FIG. 2, with each Phase being a two week period of time. A solution of 4-AP was used in this experiment. […] Vehicle control treatment was WFI delivered at 2 mL/kg by gastric gavage. […] Starting on day 30 after MCAO (Day 30, start of phase 1), the animals received gavage dosing of solutions (2 mL/kg) approximately 12 hours apart, for a total of five doses. The same schedule was repeated with different treatment on Day 44 and Day 58 for phase 2 and 3 of the study, respectively. Animals were not treated during the 10 days between phases (washout period). Treatment groups: Dosing was started 4 weeks after MCAO surgery. During these 4 weeks, weekly behavioral assessments, as defined below, were performed. […] Animals were given the first dose and behavioral assessments were performed starting 60 minutes after dosing. Animals then received the second dose that day at the appropriate time and b.i.d (preferably every 12 hours) thereafter for 2 more days (3 total days of dosing, 5 total doses). One hour after the 5th dose, animals were subjected to behavioral assessments as defined below. Following the final behavioral assessment, drug was withdrawn for 10 or 11 days, behavior was re-assessed, and then animals were re-challenged with a cross-over treatment (Phase 2 of Table 2B) as described in Tables 2A, 2B and 3, followed by the same behavioral testing and dosing regimen. This cross-over was repeated one more time as well (Phase 3 of Table 2B) (see FIG. 2). Cylinder Test: Evaluation was performed at Day -1 (pre-operation), Day 7, Day 21, Day 30, Day 32, Day 44, Day 46, Day 58, Day 60. This test assessed limb use asymmetry. Rats were placed in a transparent cylinder (20 cm in diameter and 30 cm in height) for 3-6 minutes. A mirror was placed behind the cylinder to determine forelimb movements when animal was turned away from the camera. […] Simultaneous use of both left and right forelimbs while contacting the wall during a full rear was also scored. A total number of 20 forelimb placings were counted during a trial. Data was expressed in terms of percent use of the non-impaired and or impaired forelimb relative to the total number of limb use observations for wall movements.

[2] = test system: rats with middle cerebral artery occlusion (MCAO); experiment: Forelimb placing test after MCAO; assay type: in vivo, Sprague Dawley rats

**Q.** `Nc1ccncc1` [4-AP, 4-aminopyridine] was tested. Which “Effect on body symmetry and coordination (cylinder test)” value ([1]; Example 2, 0.63 or 2 mg/kg b.i.d. p.o., started 4 weeks post MCAO, dose-dependent, reversible) did it give?
**A.** Its value is “effective to improve body symmetry and coordination”.

**Q.** And the “Cylinder Test (Total Movement)” value ([1]; Group 1, D 7)?
**A.** The value was 131.00 and 130.00 and 77.00 and 57.00 (2×) and 139.00 and 35.00 and 15.00 and 32.00 and 14.00 and 63.00.

**Q.** What about the “Cylinder Test (Total Movement)” value ([1]; Group 1, D 7, mean) of the same compound?
**A.** Its value is 58.07.

**Q.** What about the “Cylinder Test (Total Movement)” value ([1]; Group 1, D 21) of the same compound?
**A.** Its value is 51.00 and 98.00 and 31.00 and 67.00 and 172.00 and 28.00 and 70.00 and 8.00 and 52.00 and 22.00 and 13.00.

**Q.** What about the “Cylinder Test (Total Movement)” value ([1]; Group 1, D 21, mean) of the same compound?
**A.** Its value is 45.67.

**Q.** What about the “Cylinder Test (Total Movement)” value ([1]; Group 1, D 30) of the same compound?
**A.** The value was 0.00 (3×) and 75.00 and 2.00 and 10.00 (2×) and 6.00 and 13.00 and 12.00 and 4.00.

**Q.** And the “Cylinder Test (Total Movement)” value ([1]; Group 1, D 32)?
**A.** Its value is 11.00 and 54.00 and 22.00 and 39.00 and 10.00 and 8.00 and 14.00 and 15.00 and 0.00 (2×) and 38.00.

**Q.** And the “Cylinder Test (Total Movement)” value ([1]; Group 1, D 44)?
**A.** The value was 28.00 and 93.00 and 48.00 and 57.00 and 47.00 and 9.00 and 123.00 and 11.00 and 5.00 and 66.00.

**Q.** And the “Cylinder Test (Total Movement)” value ([1]; Group 1, D 46)?
**A.** Its value is 11.00 and 47.00 and 43.00 and 48.00 and 46.00 and 12.00 and 63.00 and 4.00 and 0.00 and 13.00.

**Q.** What about the “Cylinder Test (Total Movement)” value ([1]; Group 1, D 58) of the same compound?
**A.** The value was 14.00 and 137.00 and 18.00 and 81.00 and 53.00 and 16.00 and 74.00 and 0.00 and 11.00 and 26.00.

**Q.** What about the “Cylinder Test (Total Movement)” value ([1]; Group 1, D 58, mean) of the same compound?
**A.** Its value is 36.47.

**Q.** What about the “Cylinder Test (Total Movement)” value ([1]; Group 1, D 60) of the same compound?
**A.** Its value is 14.00 and 81.00 and 33.00 and 44.00 and 28.00 and 9.00 and 85.00 and 0.00 and 3.00 and 6.00.

**Q.** And the “Cylinder Test (Total Movement)” value ([1]; Group 1, D 60, mean)?
**A.** Its value is 27.40.

**Q.** What about the “Cylinder Test (Total Movement)” value ([1]; Group 1, D −1) of the same compound?
**A.** Its value is 64.00 and 152.00 and 81.00 and 52.00 and 100.00 and 53.00 and 47.00 and 14.00 and 31.00 and 23.00 and 49.00.

**Q.** And the “Cylinder Test (Total Movement)” value ([1]; Group 1, D −1, mean)?
**A.** Its value is 63.07.

**Q.** And the “Cylinder Test Score (Overall Asymmetry (%))” value ([1]; Group 2, D 7)?
**A.** The value was 55.47% and 28.85% and 25.00% and 51.56% and 50.00% and 58.33% and 42.36% and 28.57% and 43.14% and 24.32% and 14.29%.

**Q.** And the “Cylinder Test Score (Overall Asymmetry (%))” value ([1]; Group 2, D 7, mean)?
**A.** Its value is 38.14%.

**Q.** What about the “Cylinder Test Score (Overall Asymmetry (%))” value ([1]; Group 2, D 21) of the same compound?
**A.** The value was 56.25% and −23.17% and 66.67% (2×) and 49.06% and 46.43% and 25.32% and 47.83% and 22.22% and 17.86% and −25.00%.

**Q.** And the “Cylinder Test Score (Overall Asymmetry (%))” value ([1]; Group 2, D 21, mean)?
**A.** Its value is 27.16%.

**Q.** And the “Cylinder Test Score (Overall Asymmetry (%))” value ([1]; Group 2, D 30)?
**A.** Its value is 51.72% and 0.00% and 4.17% and 56.64% and 27.59% and 75.00% and 20.99% and 27.50% and 16.67% and 20.00%.

**Q.** And the “Cylinder Test Score (Overall Asymmetry (%))” value ([1]; Group 2, D 32)?
**A.** The value was 63.29% and 18.18% and 33.33% and 54.78% and 22.73% and 62.50% and 16.00% and 20.00% and 3.85% and 27.66% and −33.33%.

**Q.** What about the “Cylinder Test Score (Overall Asymmetry (%))” value ([1]; Group 2, D 44) of the same compound?
**A.** Its value is 58.33% and 14.04% and 38.96% and 52.53% and 11.54% and 54.93% and 7.14% and 18.18% and −27.08% and 17.65% and −20.00%.

**Q.** And the “Cylinder Test Score (Overall Asymmetry (%))” value ([1]; Group 2, D 44, mean)?
**A.** The value was 14.61%.

**Q.** And the “Cylinder Test Score (Overall Asymmetry (%))” value ([1]; Group 2, D 46)?
**A.** The value was 28.57% and 34.85% and 31.40% and 19.05% and 29.33% and 40.35% and 46.15% and 16.95% and 42.86% and 2.86%.

**Q.** And the “Cylinder Test Score (Overall Asymmetry (%))” value ([1]; Group 2, D 46, mean)?
**A.** Its value is 24.91%.

**Q.** And the “Cylinder Test Score (Overall Asymmetry (%))” value ([1]; Group 2, D 58)?
**A.** Its value is 29.17% and 50.00% and 66.67% and 54.76% and 30.00% and 88.00% and −7.69% and −16.67% and 62.50%.

**Q.** What about the “Cylinder Test Score (Overall Asymmetry (%))” value ([1]; Group 2, D 60) of the same compound?
**A.** Its value is 64.00% and 20.00% and 14.29% and 62.50% and 10.00% and 76.47% and 13.95% and 0.00% (2×) and −100.00%.

**Q.** And the “Cylinder Test Score (Overall Asymmetry (%))” value ([1]; Group 2, D −1)?
**A.** Its value is −15.58% and −1.96% and −24.39% and 2.38% and 0.00% and 1.65% and −2.20% and −7.58% and 21.05% and 8.45% and −2.70% and −5.66%.

**Q.** What about the “Cylinder Test Score (Overall Asymmetry (%))” value ([1]; Group 2, D −1, mean) of the same compound?
**A.** The value was −4.05%.

**Q.** And the “Cylinder Test (Total Movement), Mean” value ([1]; Group 3, D 44 after MCAO)?
**A.** Its value is 19.13.

**Q.** What about the “Cylinder Test (Total Movement), Mean” value ([1]; Group 3, D 46 after MCAO) of the same compound?
**A.** Its value is 18.73.

**Q.** And the “Cylinder Test (Total Movement), Mean” value ([1]; Group 3, D 58 after MCAO)?
**A.** The value was 32.33.

**Q.** And the “Forelimb placing compared to vehicle” value ([2]; Example 17, 0.5 mg/kg b.i.d. p.o., Day 59 post-MCAO, p<0.001)?
**A.** Its value is “significantly improved in forelimb placing”.

**Q.** What about the “Forelimb test compared to vehicle” value ([2]; Example 17, 1 mg/kg b.i.d. p.o., Day 62 post-MCAO, p<0.001) of the same compound?
**A.** The value was “measureable improvement”.

**Q.** What about the “Forelimb function compared to vehicle” value ([2]; Example 17, 2 mg/kg b.i.d. p.o., Day 65 post-MCAO, p<0.0001) of the same compound?
**A.** The value was “significant improvements”.
